Active and inactive are the calls of the source. No cut-off for these calls is given here.
Tests used:
[1] = system: Porcine reproductive and respiratory syndrome virus; assay: Antiviral activity against Porcine reproductive and respiratory syndrome virus infected in MARC145 cells assessed as reduction in viral replication by microscopic analysis; type: functional, organism-based
Zika virus = assay: Antiviral activity against ZIKV ZG-01 infected in A549 cells preincubated for 1 hr followed by replacement with fresh media containing compound for 48 hrs by crystal violet staining based plaque assay; type: functional, organism-based; conditions: ZG-01, A549
[2] = Cytotoxicity against human A549 cells assessed as reduction in cell viability incubated for 48 hrs by MTT assay; type: toxicity, cell-based
NS5 (Zika virus) = NS5 (Zika virus) (UniProt A0A143MHK7); assay: Binding affinity to ZIKV RdRP by SPR assay

**Q.** With `COc1cc(O)c2c(c1)[C@@H](O)[C@H]1C[C@](C)(O)[C@H](O)C[C@@H]1C2=O` [TETRAHYDROALTERSOLANOL C] as the compound, how does the EC50 [1] read?
**A.** Its EC50 is 12.1 µM.

**Q.** Which EC50 (Zika virus) does the source give for `C[C@]1(O)CC2=C(C[C@@]1(C)O)C(=O)c1c(O)cc(NCCN3CCCCC3)c(O)c1C2=O` here?
**A.** The EC50 was 8.7 µM.

**Q.** What about the CC50 at 48 h [2] of the same compound?
**A.** Its CC50 at 48 h is greater than 50 µM.

**Q.** What does the source list for `CCCNc1cc(O)c2c(c1O)C(=O)C1=C(C[C@@](C)(O)[C@@](C)(O)C1)C2=O`?
**A.** EC50 (Zika virus): 42.6 µM; CC50 at 48 h [2]: > 50 µM

**Q.** For `C[C@]1(O)CC2=C(C[C@@]1(C)O)C(=O)c1c(O)cc(NCc3ccco3)c(O)c1C2=O`, which EC50 (Zika virus) is on record?
**A.** Its EC50 is 16.5 µM.

**Q.** And the CC50 at 48 h [2]?
**A.** Its CC50 at 48 h is greater than 50 µM.

**Q.** With `NC(=O)c1ncn([C@@H]2O[C@H](CO)[C@@H](O)[C@H]2O)n1` as the compound, how does the Activity (NS5 (Zika virus)) read?
**A.** The Activity was “inactive”.

**Q.** What does the source list for `C[C@]1(O)CC2=C(C[C@@]1(C)O)C(=O)c1c(O)cc(NCCN3CCOCC3)c(O)c1C2=O`?
**A.** EC50 (Zika virus): 24.5 µM; CC50 at 48 h [2]: > 50 µM

**Q.** Which EC50 (Zika virus) does the source give for `C[C@]1(O)CC2=C(C[C@@]1(C)O)C(=O)c1c(O)cc(NC3CCC3)c(O)c1C2=O` here?
**A.** Its EC50 is 38.4 µM.

**Q.** What about the CC50 at 48 h [2] of the same compound?
**A.** Its CC50 at 48 h is greater than 50 µM.

**Q.** Which results are given for `C[C@]1(O)CC2=C(C[C@@]1(C)O)C(=O)c1c(O)cc(NCCC3=CCCCC3)c(O)c1C2=O`?
**A.** EC50 (Zika virus): 5.7 µM; CC50 at 48 h [2]: > 50 µM

**Q.** For `C[C@]1(O)CC2=C(C[C@@]1(C)O)C(=O)c1c(O)cc(NCc3ccccc3)c(O)c1C2=O`, which EC50 (Zika virus) is on record?
**A.** The EC50 was 10.3 µM.

**Q.** And the CC50 at 48 h [2]?
**A.** The CC50 at 48 h was greater than 50 µM.

**Q.** With `C[C@]1(O)CC2=C(C[C@@]1(C)O)C(=O)c1c(O)cc(NC3CC3)c(O)c1C2=O` as the compound, how does the EC50 (Zika virus) read?
**A.** The EC50 was 48.1 µM.

**Q.** And the CC50 at 48 h [2]?
**A.** Its CC50 at 48 h is greater than 50 µM.

**Q.** With `C[C@]1(O)CC2=C(C[C@@]1(C)O)C(=O)c1c(O)cc(NCCc3cccs3)c(O)c1C2=O` as the compound, how does the EC50 (Zika virus) read?
**A.** Its EC50 is 7.8 µM.

**Q.** What about the CC50 at 48 h [2] of the same compound?
**A.** Its CC50 at 48 h is greater than 50 µM.

**Q.** What does the source list for `C[C@]1(O)CC2=C(C[C@@]1(C)O)C(=O)c1c(O)cc(NCCN3CCCC3)c(O)c1C2=O`?
**A.** EC50 (Zika virus): 8.4 µM; CC50 at 48 h [2]: > 50 µM

**Q.** For `C[C@]1(O)CC2=C(C[C@@]1(C)O)C(=O)c1c(O)cc(NCCc3ccccc3)c(O)c1C2=O`, which EC50 (Zika virus) is on record?
**A.** The EC50 was 4.2 µM.

**Q.** What about the CC50 at 48 h [2] of the same compound?
**A.** Its CC50 at 48 h is greater than 50 µM.

**Q.** Which results are given for `CCC(C)Nc1cc(O)c2c(c1O)C(=O)C1=C(C[C@@](C)(O)[C@@](C)(O)C1)C2=O` (some centres undefined)?
**A.** EC50 (Zika virus): > 50 µM; CC50 at 48 h [2]: > 50 µM

**Q.** With `CCNc1cc(O)c2c(c1O)C(=O)C1=C(C[C@@](C)(O)[C@@](C)(O)C1)C2=O` as the compound, how does the EC50 (Zika virus) read?
**A.** Its EC50 is 44.2 µM.

**Q.** What about the CC50 at 48 h [2] of the same compound?
**A.** The CC50 at 48 h was greater than 50 µM.

**Q.** What does the source list for `C[C@]1(O)CC2=C(C[C@@]1(C)O)C(=O)c1c(O)cc(NCC3CCCO3)c(O)c1C2=O` (some centres undefined)?
**A.** EC50 (Zika virus): 36.1 µM; CC50 at 48 h [2]: > 50 µM

**Q.** With `C[C@]1(O)CC2=C(C[C@@]1(C)O)C(=O)c1c(O)cc(NC3CCCC3)c(O)c1C2=O` as the compound, how does the EC50 (Zika virus) read?
**A.** Its EC50 is 17.1 µM.

**Q.** What about the CC50 at 48 h [2] of the same compound?
**A.** Its CC50 at 48 h is greater than 50 µM.

**Q.** Which results are given for `C[C@]1(O)CC2=C(C[C@@]1(C)O)C(=O)c1c(O)cc(NCCc3ccco3)c(O)c1C2=O`?
**A.** EC50 (Zika virus): 8.1 µM; CC50 at 48 h [2]: > 50 µM

**Q.** For `C[C@]1(O)CC2=C(C[C@@]1(C)O)C(=O)c1c(O)cc(N3CCOCC3)c(O)c1C2=O`, which EC50 (Zika virus) is on record?
**A.** The EC50 was 15.4 µM.

**Q.** And the CC50 at 48 h [2]?
**A.** Its CC50 at 48 h is greater than 50 µM.

**Q.** Which results are given for `C[C@]1(O)CC2=C(C[C@@]1(C)O)C(=O)c1c(O)cc(NCc3cccs3)c(O)c1C2=O`?
**A.** EC50 (Zika virus): 12.2 µM; CC50 at 48 h [2]: > 50 µM

**Q.** With `C[C@]1(O)CC2=C(C[C@@]1(C)O)C(=O)c1c(O)cc(NC3CCCCC3)c(O)c1C2=O` as the compound, how does the EC50 (Zika virus) read?
**A.** The EC50 was 15.5 µM.

**Q.** And the CC50 at 48 h [2]?
**A.** The CC50 at 48 h was greater than 50 µM.

**Q.** With `C[C@]1(O)CC2=C(C[C@@]1(C)O)C(=O)c1c(O)cc(NCCO)c(O)c1C2=O` as the compound, how does the EC50 (Zika virus) read?
**A.** The EC50 was 48.4 µM.

**Q.** And the CC50 at 48 h [2]?
**A.** Its CC50 at 48 h is greater than 50 µM.

**Q.** Which results are given for `C[C@]1(O)CC2=C(C[C@@]1(C)O)C(=O)c1c(O)cc(N3CCCC3)c(O)c1C2=O`?
**A.** EC50 (Zika virus): 25.6 µM; CC50 at 48 h [2]: > 50 µM

Reference: ChEMBL document CHEMBL5620422, “Design, synthesis, and biological evaluation of a series of new anthraquinone derivatives as anti-ZIKV agents” (Eur J Med Chem, 2023)
